Measured values published in patent publication US20040096356A1, “Assay device for determining analytes in a liquid dairy product” (priority 1997, published 2004).

Columns and labels:
Format in all cases: binding
receptor BlaR-CTD [1] = molecular target: T1, receptor BlaR-CTD (Bacillus licheniformis, UniProt P12287); experiment: Five minutes test: strip test for β-lactam antibiotics in milk using BlaR-CTD; conditions: for lowest concentration detected in a milk sample: in 5 minutes, positive when first band is less intense than second band; for Intensity 1st band: scale 0 to 10, reference band 6, 47° C., 3 min incubation + 2 min migration
T1 construct: the receptor BlaR-CTD is the carboxy-terminal region of BlaR
T1 sequence (P12287 340-601): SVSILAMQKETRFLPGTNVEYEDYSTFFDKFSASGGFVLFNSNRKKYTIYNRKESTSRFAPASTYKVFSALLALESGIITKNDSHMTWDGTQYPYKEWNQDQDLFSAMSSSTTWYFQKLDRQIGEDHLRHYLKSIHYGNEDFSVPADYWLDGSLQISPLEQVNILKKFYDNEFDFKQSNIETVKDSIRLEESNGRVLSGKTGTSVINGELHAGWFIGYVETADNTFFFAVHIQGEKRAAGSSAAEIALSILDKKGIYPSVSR
Description: (§1) According to a preferred embodiment of the invention an identifier is used which comprises a receptor sensitive to antibiotics having a β-lactam ring, which receptor is obtained from Bacillus licheniformis, such as the receptor BlaR or the receptor BlaR-CTD. The isolation and the peptide sequence of the protein BlaR are described in Y. Zhu et al., J. Bacteriol., 1137-1141 (1990); the receptor BlaR-CTD is the carboxy-terminal region of BlaR, whose isolation and peptide sequence are described in B. Joris et al., FEMS Microbiology Letters, 107-114 (1990).
(§2) This example illustrates the detection in milk of antibiotics having a β-lactam ring which are monitored by the health authorities. The test described in this example uses the receptor BlaR-CTD coupled with gold beads, which serve as labelling agents, and uses a support which is in the form of an assay device comprising a solid support on which membranes are fixed.
(§3) 3.79 ml of a solution of recognition agent BlaR-CTD having a concentration of 6.6 mg/ml are taken up in a sodium phosphate buffer, 20 mM pH 7. To this solution of BlaR-CTD are then added 41.71 ml of bicarbonate buffer (0.1 M sodium bicarbonate, pH 9) and 2 ml of a solution of N-hydroxysuccinimide 6-(biotinamido)caproic ester containing 2.23 mg/ml likewise of bicarbonate buffer. This solution is stirred gently on a LABINCO stirrer for tubes on a rotary axis (available from VEL, Belgium) at a rate of 2 revolutions/minute for 2 hours at ambient temperature and away from light. 2.5 ml of a solution of Tris buffer, 1 M pH 8 are incubated with the reaction mixture under the same conditions for 30 minutes. The solution thus obtained is dialysed against HNM buffer (Hepes 100 mM, pH 8, NaCl 100 mM, MgCl2 50 mM) for 24 hours. In this way a biotinylated BlaR-CTD solution is obtained which is diluted in HNM-BSA buffer (Hepes 500 mM, pH 8, NaCl 500 mM, MgCl2 250 mM, BSA 10 mg/ml) to a concentration of 250 μg of biotinylated BlaR-CTD per ml of buffer. This solution is stored at −20° C.
(§4) The biotinylated BlaR-CTD solution prepared in Example 3.1.1 is diluted 114.7 times with the HNM-BSA buffer (Hepes 500 mM, pH 8, NaCl 500 mM, MgCl2 250 mM, BSA 10 mg/ml). At room temperature, 22.5 parts by volume of this dilute biotinylated BlaR-CTD solution, 7.5 parts by volume of HNM-BSA buffer, 9.27 parts by volume of the gold particle suspension used to label the biotinylated BlaR-CTD and 6 parts by volume of reference gold particle suspension are mixed (see Example 3.1.4 below).
(§5) The first capture substance makes it possible to fix the BlaR-CTD coupled with the gold beads present in excess relative to the quantity of antibiotic present in the sample.
(§6) Assay devices containing membranes (2), (3) and (4) are used, assembled in accordance with the procedure described in Example 1.1. The membrane (3) of these devices carries on the proximal side the capture substance described in Example 32.1. and on the distal side the capture substance described in Example 3.2.2. The capture substances were deposited in accordance with the procedure described in Example 1.2.
Six samples of fresh milk are prepared, containing 0; 2; 4; 6; 8 and 10 ppb, repsectively, of cloxacillin. Each of these solutions is then analysed as follows.
(§7) An aliquot is taken of 200 μl of milk sample and 45.27 μl of solution prepared in Example 3.1.3, and is placed in a glass flask. This mixture is incubated at 47° C. for 3 minutes. An assay device is taken and is placed vertically in the glass flask such that the first end of the assay device is in contact with the mixture in such a way that the second end rests on the wall of the glass flask. The mixture is allowed to migrate over the assay device while the assembly is incubated at 47° C. for 2 minutes.
(§8) An intensity value ranging from 0 to 10 is awarded to the bands detected, the value 10 being given to the most intense band and the value 0 being given to the least intense band. On this scale, a value of 6 is awarded to the reference band. […]

receptor BlaR-CTD [2] = molecular target: T1, receptor BlaR-CTD; experiment: 9-minute test: strip test for β-lactam antibiotics in milk using BlaR-CTD; conditions: for lowest concentration detected in a milk sample: in 9 minutes, positive when first band is less intense than second band; for Intensity 1st band: scale 0 to 10, reference band 6, 47° C., 7 min incubation + 2 min migration
Description: as §1, §2, §3, §4, §5, §6
Six samples of fresh milk are prepared, containing 0; 4; 6; 8; 10 and 12 ppb, respectively, of cephapirin. Each of these solutions is then analysed as follows.
as §7, with “for 7” for “for 3”
as §8

receptor BlaR-CTD [3] = molecular target: T1, receptor BlaR-CTD; experiment: 20-minute test: strip test for β-lactam antibiotics in milk using BlaR-CTD; conditions: for Intensity 1st band: scale 0 to 10, reference band 6, 47° C., 18 min incubation + 2 min migration
Description: as §1, §2, §3, §4, §5, §6
Six samples of fresh milk are prepared, containing 0; 20; 30; 40; 50 and 60 ppb, respectively, of ceftiofur. Each of these solutions is then analysed as follows.
as §7, with “for 18” for “for 3”
An intensity value ranging from 0 to 10 is awarded to the bands detected, the value 10 being given to the most intense band and the value 0 being given to the least intense band. On this scale, a value 6 is awarded to the reference band. […]

receptor BlaR-CTD [4] = molecular target: T1, receptor BlaR-CTD; experiment: 3-minute rapid test: strip test for β-lactam antibiotics in milk using BlaR-CTD; conditions: in 3 minutes; positive when first band is less intense than second band
Description: as §1, §2, §3, §4, §5, §6
7 samples of fresh milk are prepared, containing 0; 1; 2; 3; 4; 5 and 6 ppb, respectively, of penicillin G. Each of these solutions is then analysed as follows.
as §7, with “for 1 minute.” for “for 3 minutes.”, “mixture and” for “mixture in”, “such” for “such a way”
as §8

For `CO/N=C(\C(=O)N[C@@H]1C(=O)N2C(C(=O)O)=C(CSC(=O)c3ccco3)CS[C@H]12)c1csc(N)n1` [Ceftiofur, ceftiofur], the “lowest concentration detected in a milk sample” value (“lowest concentration detected” below) (receptor BlaR-CTD [1]) was 100 ppb, the “lowest concentration detected” value (receptor BlaR-CTD [2]) was 80 ppb and the “Intensity 1st band” value (receptor BlaR-CTD [3]; 20 ppb ceftiofur in fresh milk) was 6. For the same compound, the “Intensity 1st band” value (receptor BlaR-CTD [3]; 30 ppb ceftiofur in fresh milk) was 5, the “Intensity 1st band” value (receptor BlaR-CTD [3]; 40 ppb ceftiofur in fresh milk) was 4 and the “Intensity 1st band” value (receptor BlaR-CTD [3]; 50 ppb ceftiofur in fresh milk) was 3. For the same compound, the “Intensity 1st band” value (receptor BlaR-CTD [3]; 60 ppb ceftiofur in fresh milk) was 3 and the “lowest concentration detected” value (receptor BlaR-CTD [3]; in 20 minutes, positive when first band is less intense than second band) was 30 ppb.
`CC(=O)OCC1=C(C(=O)O)N2C(=O)[C@@H](NC(=O)CSc3ccncc3)[C@H]2SC1` [Cephapirin, cephapirin] was tested, and the “lowest concentration detected” value (receptor BlaR-CTD [4]) was 20 ppb, the “lowest concentration detected” value (receptor BlaR-CTD [1]) was 16 ppb and the “Intensity 1st band” value (receptor BlaR-CTD [2]; 4 ppb cephapirin in fresh milk) was 6. For the same compound, the “Intensity 1st band” value (receptor BlaR-CTD [2]; 6 ppb cephapirin in fresh milk) was 5, the “Intensity 1st band” value (receptor BlaR-CTD [2]; 8 ppb cephapirin in fresh milk) was 4 and the “Intensity 1st band” value (receptor BlaR-CTD [2]; 10 ppb cephapirin in fresh milk) was 3. The “Intensity 1st band” value (receptor BlaR-CTD [2]; 12 ppb cephapirin in fresh milk) was 3 and the “lowest concentration detected” value (receptor BlaR-CTD [2]) was 6 ppb.
With `Cc1onc(-c2ccccc2Cl)c1C(=O)N[C@@H]1C(=O)N2[C@@H]1SC(C)(C)[C@@H]2C(=O)O` [Cloxacillin, cloxacillin] the “lowest concentration detected” value (receptor BlaR-CTD [4]) was “less than 10 ppb”, the “Intensity 1st band” value (receptor BlaR-CTD [1]; 2 ppb cloxacillin in fresh milk) was 6 and the “Intensity 1st band” value (receptor BlaR-CTD [1]; 4 ppb cloxacillin in fresh milk) was 5. The “Intensity 1st band” value (receptor BlaR-CTD [1]; 6 ppb cloxacillin in fresh milk) was 3, the “Intensity 1st band” value (receptor BlaR-CTD [1]; 8 ppb cloxacillin in fresh milk) was 3 and the “Intensity 1st band” value (receptor BlaR-CTD [1]; 10 ppb cloxacillin in fresh milk) was 3. For the same compound, the “lowest concentration detected” value (receptor BlaR-CTD [1]) was 4 ppb and the “lowest concentration detected” value (receptor BlaR-CTD [2]) was 4 ppb.
With `CC1(C)S[C@@H]2[C@H](NC(=O)[C@H](N)c3ccc(O)cc3)C(=O)N2[C@H]1C(=O)O` [amoxicillin] the “lowest concentration detected” value (receptor BlaR-CTD [4]) was 5 ppb, the “lowest concentration detected” value (receptor BlaR-CTD [1]) was 4 ppb and the “lowest concentration detected” value (receptor BlaR-CTD [2]) was 4 ppb.
With `CC1(C)S[C@@H]2[C@H](NC(=O)[C@H](N)c3ccccc3)C(=O)N2[C@H]1C(=O)O` [ampicillin] the “lowest concentration detected” value (receptor BlaR-CTD [4]) was 5 ppb, the “lowest concentration detected” value (receptor BlaR-CTD [1]) was 4 ppb and the “lowest concentration detected” value (receptor BlaR-CTD [2]) was 4 ppb.
For `Cc1nnc(SCC2=C(C(=O)O)N3C(=O)[C@@H](NC(=O)Cn4cnnn4)[C@H]3SC2)s1` [cefazolin], the “lowest concentration detected” value (receptor BlaR-CTD [1]) was 60 ppb and the “lowest concentration detected” value (receptor BlaR-CTD [2]) was 45 ppb.
With `CO/N=C(\C(=O)N[C@@H]1C(=O)N2C(C(=O)[O-])=C(C[n+]3cccc4c3CCCC4)CS[C@H]12)c1csc(N)n1` [cefquinone] the “lowest concentration detected” value (receptor BlaR-CTD [1]) was “less than 20 ppb” and the “lowest concentration detected” value (receptor BlaR-CTD [2]) was “less than 20 ppb”.
For `Cc1onc(-c2c(Cl)cccc2Cl)c1C(=O)N[C@@H]1C(=O)N2[C@@H]1SC(C)(C)[C@@H]2C(=O)O` [dicloxacillin], the “lowest concentration detected” value (receptor BlaR-CTD [1]) was 8 ppb and the “lowest concentration detected” value (receptor BlaR-CTD [2]) was 8 ppb.
`CCOc1ccc2ccccc2c1C(=O)N[C@@H]1C(=O)N2[C@@H]1SC(C)(C)[C@@H]2C(=O)O` [nafcillin] was tested, and the “lowest concentration detected” value (receptor BlaR-CTD [1]) was 20 ppb and the “lowest concentration detected” value (receptor BlaR-CTD [2]) was 20 ppb.
For `Cc1onc(-c2ccccc2)c1C(=O)N[C@@H]1C(=O)N2[C@@H]1SC(C)(C)[C@@H]2C(=O)O` [oxacillin], the “lowest concentration detected” value (receptor BlaR-CTD [1]) was 8 ppb and the “lowest concentration detected” value (receptor BlaR-CTD [2]) was 8 ppb.
